Source: patent publication US20040092588A1, “Antiseptic for wounds and mucous membranes” (priority 2001, published 2004)

System: human amnion cells (FL cells)
Test: neutral red uptake cytotoxicity test
Type: cell-based
Settings: 24 h at 37° C.
Method: In this test, adherent cultures of human amnion cells (FL cells) are incubated for 24 h at 37° C. with the desired concentration of the test substance in complete MEM culture medium with 5% FBS in a 5% CO2/air atmosphere. The culture medium and test substance are then removed, and new culture medium with neutral red is added. Since vital FL cells take up the dye neutral red in their lysosomes, the intensity of the eluted red coloration is correlated with the proportion of living cells. The intensity is automatically determined by the absorbance at a 540 nm test wavelength/655 nm reference wavelength. Information about the cytotoxic activity of the test substance can be obtained by comparison with a control group that was incubated with phosphate-buffered salt solution (PBS) instead of with the test substance. In addition, this model can be used to test and compare different formulations.
In the present test, different concentrations of octenidine dihydrochloride in PBS and Octenisept® (containing octenidine dihydrochloride and phenoxyethanol) were compared with each other and with PBS. The concentration values refer to the concentration of octenidine dihydrochloride.
The measured absorbances are plotted in FIGS. 1-2. Each measurement is based on 32 individual measurements. Inferential statistical analysis was performed by the U-test. […]

## CCCCCCCCN=c1ccn(CCCCCCCCCCn2ccc(=NCCCCCCCC)cc2)cc1.Cl.Cl [octenidine dihydrochloride]
  cytotoxic activity relative to comparable concentrations in Octenisept: significantly lower
All tested concentrations, U-test
  absorbance (neutral red, 540 nm/655 nm) relative to Octenisept: significantly elevated
